Measured values taken from patent publication US8871465B2 (priority 2009, dated 2014).

What was measured:
[1] = Stability of the substrate in aqueous medium; assay type: physicochemical; conditions: medium at pH 7.2; a pH of 6.8 is required
[2] = as indicated in U.S. Pat. No. 6,558,917; cited from earlier work
[3] = test system: Bacillus sphaericus 8710054; conditions: pH 7.2
[4] = test system: Bacillus licheniformis 93.08.043; conditions: pH 7.2
[5] = test system: Bacillus cereus ATCC 7064
[6] = test system: Bacillus circulans ATCC 4513; conditions: pH 7.2
[7] = test system: ATCC 6463 (Bacillus cereus group); conditions: pH 7.2
[8] = test system: ATCC 33019 (Bacillus cereus group); conditions: pH 7.2
[9] = test system: Bacillus lentus ATCC 10840; conditions: pH 7.2
[10] = test system: other Gram-positive bacteria; conditions: pH 7.2
[11] = test system: Bacillus cereus; conditions: pH 7.2
[12] = test system: ATCC 6464 (Bacillus cereus group); conditions: pH 7.2
[13] = test system: ATCC 9139 (Bacillus cereus group); conditions: pH 7.2
[14] = test system: NCTC 11145 (Bacillus cereus group); conditions: pH 7.2
[15] = test system: 0240015 (Bacillus cereus group); conditions: pH 7.2
[16] = test system: PaeniBacillus polymyxa ATCC 21551; conditions: pH 7.2
[17] = test system: Bacillus cereus ATCC 7064; conditions: pH 7.2
[18] = test system: ATCC 10876 (Bacillus cereus group); conditions: pH 7.2
[19] = test system: Bacillus pumilus ATCC 7061; conditions: pH 7.2
[20] = test system: Bacillus megaterium ATCC 14581; conditions: pH 7.2
[21] = test system: L. monocytogenes 0301902; conditions: 37° C., pH 7.2, 1 000 CFU, detection threshold 30 000 RFU
Experimental: (§1) Various pure strains of the Bacillus genus and also other Gram-positive bacteria were tested in a microplate in the presence of the medium below. A reading of the appearance of the fluorescence in each of the various wells of the microplate was then performed at different times over the course of 44 h of incubation at 37° C.
(§2) The medium having the following composition was used (composition in g/l), pH 7.2:
(§3) The wells of the microplate are inoculated with 10 colony-forming units (CFU) of bacteria of the Bacillus cereus group and 1 000 CFU for the other Bacillus that are non cereus and other Gram-positive bacteria. The microplate is then incubated for 44 h at 37° C. in a microplate reader in order to evaluate the PC-PLC activity of these various strains in the form of kinetics of hydrolysis of the substrate 4 MU-CP, i.e to detect and measure the appearance of fluorescence. The detection threshold of the measuring apparatus is fixed at 30 000 RFU (relative fluorescence unit).

[22] = test system: L. monocytogenes ATCC 19118; conditions: 37° C., pH 7.2, 1 000 CFU, detection threshold 30 000 RFU
Experimental: as §1, §2, §3

[23] = test system: L. ivanovii ATCC 49954; conditions: 37° C., pH 7.2, 1 000 CFU, detection threshold 30 000 RFU
Experimental: as §1, §2, §3

[24] = test system: S. aureus 8407603; conditions: 37° C., pH 7.2, 1 000 CFU, detection threshold 30 000 RFU
Experimental: as §1, §2, §3

[25] = test system: S. aureus 25923; conditions: 37° C., pH 7.2, 1 000 CFU, detection threshold 30 000 RFU
Experimental: as §1, §2, §3

[26] = test system: Bacillus subtilis ATCC 6051; conditions: 37° C., pH 7.2, 1 000 CFU, detection threshold 30 000 RFU
Experimental: as §1, §2, §3

[27] = test system: L. ivanovii 0002147; conditions: 37° C., pH 7.2, 1 000 CFU, detection threshold 30 000 RFU
Experimental: as §1, §2, §3

## Cc1cc(=O)oc2cc(OP(=O)(O)OC3C(O)C(O)C(O)C(O)C3O)ccc12 (stereo not shown) [4 MU-MIP, 4-methylumbelliferyl myoinositol-1-phosphate]
[1]
  Stability of the substrate at pH 7.2: instability of the substrate being too great
[2]
  Stability in an aqueous medium: reduced stability

## Cc1cc(=O)oc2cc(OP(=O)([O-])OCC[N+](C)(C)C)ccc12 [4 MU-PC, 4-methylumbelliferyl choline phosphate]
[3]
  Levels of fluorescence in 24 h: 20000 RFU
  Levels of fluorescence in 40 h: >60000 RFU
[4]
  Levels of fluorescence in 24 h: 2000 RFU
  Levels of fluorescence in 40 h: 2000 RFU
[5]
  Reduction of the detection time at pH 7.2 compared with pH 6.8: 10 h
[6]
  Levels of fluorescence in 24 h: 10000 RFU
  Levels of fluorescence in 40 h: 20000 RFU
[7]
  Levels of fluorescence in 24 h: >60000 RFU
  Levels of fluorescence in 40 h: >60000 RFU
[8]
  Levels of fluorescence in 24 h: >60000 RFU
  Levels of fluorescence in 40 h: >60000 RFU
[9]
  Levels of fluorescence in 24 h: 5000 RFU
  Levels of fluorescence in 40 h: 10000 RFU
[10]
  Incubation time to positive signal (PC-PLC activity): > 40 h
[11]
  Incubation time to positive signal (PC-PLC activity): ≥ 15 h
[12]
  Levels of fluorescence in 24 h: >60000 RFU
  Levels of fluorescence in 40 h: >60000 RFU
[13]
  Levels of fluorescence in 24 h: >60000 RFU
  Levels of fluorescence in 40 h: >60000 RFU
[14]
  Levels of fluorescence in 24 h: >60000 RFU
  Levels of fluorescence in 40 h: >60000 RFU
[15]
  Levels of fluorescence in 24 h: >60000 RFU
  Levels of fluorescence in 40 h: >60000 RFU
[16]
  Levels of fluorescence in 24 h: 5000 RFU
  Levels of fluorescence in 40 h: 10000 RFU
[17]
  Levels of fluorescence in 24 h: >60000 RFU
  Levels of fluorescence in 40 h: >60000 RFU
[18]
  Levels of fluorescence in 24 h: >60000 RFU
  Levels of fluorescence in 40 h: >60000 RFU
[19]
  Levels of fluorescence in 24 h: 5000 RFU
  Levels of fluorescence in 40 h: 10000 RFU
[20]
  Levels of fluorescence in 24 h: 5000 RFU
  Levels of fluorescence in 40 h: 5000 RFU
[21]; 24 h
  Levels of fluorescence in 24 h: 5000 RFU
[21]; 40 h
  Levels of fluorescence in 40 h: 10000 RFU
[22]; 24 h
  Levels of fluorescence in 24 h: 4000 RFU
[22]; 40 h
  Levels of fluorescence in 40 h: 15000 RFU
[23]; 24 h
  Levels of fluorescence in 24 h: 2000 RFU
[23]; 40 h
  Levels of fluorescence in 40 h: 10000 RFU
[24]; 24 h
  Levels of fluorescence in 24 h: 2000 RFU
[24]; 40 h
  Levels of fluorescence in 40 h: 2000 RFU
[25]; 24 h
  Levels of fluorescence in 24 h: 2000 RFU
[25]; 40 h
  Levels of fluorescence in 40 h: 2000 RFU
[26]; 24 h
  Levels of fluorescence in 24 h: 10000 RFU
[26]; 40 h
  Levels of fluorescence in 40 h: 20000 RFU
[27]; 24 h
  Levels of fluorescence in 24 h: 2000 RFU
[27]; 40 h
  Levels of fluorescence in 40 h: 10000 RFU
